Experiment [1] deals with HUVECs. The experiment can be described thus: Flow cytometry of cell associated CAP37 in HUVECs. The format is cell-based, human. The conditions noted are these: 10 ng/ml TNFα, permeabilized HUVECs. The protocol: FIG. 6: Flow cytometric analysis of cell associated CAP37 in HUVECs. HUVECs were incubated 18 h in the absence (unt) or presence of 10 ng/ml TNFα (TNFα), permeabilized and labeled with antisera to human CAP37 or normal serum control. Cells were permeabilized to determine intracellular levels of CAP37. A representative histogram from two independent experiments. The shift due to FITC-staining indicates increased expression of CAP37 in TNFα stimulated cells. Also indicated is a low level of constitutive CAP37 expression (unt).
HUVECs that were serum starved for 6 h were incubated in the absence or presence of 10 ng/ml TNFα for 10 h and 18 h. Permeabilized and non-permeabilized cells were fixed and stained essentially as described by Gräbner (18). The cells were first blocked with 4% normal donkey serum (JACKSON), then incubated at 4° C. with rabbit anti-human CAP37 antisera (1:300), and followed by biotin-sp-donkey F(ab′)2 anti-rabbit IgG, (JACKSON, 1:200) at 4° C. For detection the cells were incubated with fluorescein (DTAF)-conjugated streptavidin (JACKSON) at 2 μg/ml at 4° C. Cells were analyzed by flow cytometry (FACSCALIBUR, BECTON DICKINSON, San Jose, Calif.). Unstained cells and cells stained with normal rabbit serum were included as controls.
For orientation: Flow cytometry measures light scatter and fluorescence of single cells or particles in a stream.

The subject of experiment [2] is HUVECs. Nature of the experiment: ELISA of released CAP37 in supernatants of HUVEC cultures. The format is cell-based, human. The note with it: supernatants of treated HUVEC cultures. The source says: Flow cytometry confirmed the studies described in FIG. 5. TNFα treated cells that were permeabilized indicated up to a 5-fold increase of CAP37 expression over untreated cells (FIG. 6). […] To determine whether CAP37 is released from treated endothelial cells, ELISA was used to analyze supernatants from TNFα treated HUVEC cultures. Levels of released CAP37 from treated HUVECs were two-fold over untreated cells (data not shown). It was clear that the amount and proportion of CAP37 released from HUVECs was in general much less than the amount and proportion of CAP37 released from PMN (6). Almost 90% of total CAP37 is released from PMN following phagocytosis (6).

Experiment [3] relates to Human neuronal cells (ATCC, HCN-1A). The experiment can be described thus: Dot blot of released CAP37 in supernatants of human neuronal cells. It is filed as cell-based. The note with it: 75 μg/ml, 12 hrs, HCN-1A neurons. The protocol:
FIG. 10: Dot blot analysis of supernatants from human neuronal cells in vitro with anti-CAP37 antiserum. Top row (from left to right) consists of CAP37 standards, at 20, 10, 5 and 2.5 μg/ml. 2nd row consists of doubling dilutions of supes from β-amyloid treated neuronal cultures. Row 3 consists of doubling dilutions of supes from untreated neuronal cultures. Row 4-no antigen/control.
The expression of CAP37 in neurons was further corroborated using in vitro culture. Human neuronal cells (ATCC, HCN-1A) were cultured according to specifications, transferred to serum-free medium for 6 hr and treated with β-amyloid fragment 1-42 (75 μg/ml), control peptide 40-1 (75 μg/ml), and media for 12 hrs. Supernatants were analyzed by dot blot for presence of released CAP37 (FIG. 10) and cells stained with anti-CAP37 antiserum (FIG. 11A) and normal mouse serum (FIG. 11B) to determine cell-associated CAP37.

These results are taken from patent US9399675B2, “Methods and compositions for diagnosing Alzheimer's disease and age-related macular degeneration” (The Board of Regents of the University of Oklahoma, priority 2007, dated 2016).

With TNFα, the “increase of CAP37 expression over untreated cells” value in the experiment with HUVECs [1] was not above 5 fold. Besides, the “levels of released CAP37 over untreated cells” value in the experiment on HUVECs [2] is recorded as “two-fold”.

As to “β-amyloid fragment 1-42: toxic 42-amino acid beta-amyloid peptide used to induce CAP37 in human neurons”, the “concentration of released (secreted) CAP37 in supernatants” value in experiment [3] is listed as “approximately 2.5 μg/ml”.
